The values that follow come from ChEMBL document CHEMBL1201862, “PubChem BioAssay data set” (2004).

Test systems include OVCAR-8; NCI-H460; CCRF-CEM; SF-539; SK-MEL-28; IGROV-1; K562; HOP-92; OVCAR-5; SF-295; RXF 393; HCT-15; SNB-19; HL-60; SN12C; M14; NCI-H522; ACHN; TK-10.
Common to all, as to assay: DTP human tumour cell line panel, 48 h

SMILES strings stand for the structures.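 Five compound concentrations were applied to cells in 96-well plates for 48 hours; endpoints were derived by simple linear interpolation of the resulting dose-response curve. The concentration for 50% growth inhibition is given as GI50.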 The source made the active and inactive calls. Cut-off read from the data, not from the text of the source: active = GI50 up to about 1.1 µM and inactive = higher. Bounds are passed on as bounds.

`COCOc1ccc(OC)cc1`: the GI50 in the assay with OVCAR-8, with NCI-H460, with CCRF-CEM, with SF-539, in the assay with SK-MEL-28 and with IGROV-1 was > 100 µM (inactive) in each case. For the same molecule, the GI50 was > 100 µM (inactive) in the assay on K562; > 100 µM (inactive) in the assay with HOP-92; > 100 µM (inactive) in the assay with OVCAR-5; > 100 µM (inactive) in the assay on SF-295; > 100 µM (inactive) in the assay on RXF 393; greater than 100 µM with HCT-15. For the same molecule, the GI50 in the assay with SNB-19, in the assay with HL-60 and in the assay with SN12C was > 100 µM (inactive) in each case.
Consider `Cc1ccc(NC(=O)c2cc3ccccc3c(/N=N/c3cc(S(=O)(=O)O)ccc3O)c2O)c(C)c1`, for which the GI50 is 17.5 µM (inactive) in the assay on OVCAR-8; 3.3 µM (inactive) in the assay with CCRF-CEM; 18.7 µM (inactive) with SK-MEL-28; 16.3 µM (inactive) in the assay on IGROV-1; 23 µM (inactive) with K562; 21.2 µM (inactive) in the assay on HOP-92. For the same molecule, the GI50 was 7.43 µM (inactive) in the assay with M14; 16.2 µM (inactive) in the assay with OVCAR-5; 10 µM (inactive) with SF-295; 17.5 µM (inactive) with RXF 393; 9.33 µM in the assay with HCT-15; 25.4 µM (inactive) with NCI-H522. Besides, the GI50 in the assay with ACHN was 5.97 µM (inactive); in the assay on TK-10, 25.1 µM (inactive); in the assay on SNB-19, 15.8 µM (inactive); in the assay with SN12C, 41.7 µM (inactive).
`S=P1(Oc2ccccc2)NNP2(=NP(N3CC3)(N3CC3)=NP(N3CC3)(N3CC3)=N2)NN1` (stereo not drawn): the GI50 with OVCAR-8 is > 100 µM (inactive); in the assay on NCI-H460 it was 37.6 µM (inactive); with CCRF-CEM, 38.9 µM (inactive); in the assay with SF-539, > 100 µM (inactive); with SK-MEL-28 it was > 100 µM (inactive); in the assay on IGROV-1, > 100 µM (inactive). In addition, the GI50 in the assay on K562 was > 100 µM (inactive); in the assay on OVCAR-5 it was > 100 µM (inactive); in the assay on SF-295, > 10 µM (inactive); in the assay with HCT-15 it was greater than 100 µM; in the assay on NCI-H522, > 100 µM (inactive); with ACHN, > 100 µM (inactive). Moreover, the GI50 with TK-10 was > 100 µM (inactive); in the assay with SNB-19, > 100 µM (inactive); in the assay on HL-60 it was 30.4 µM (inactive); in the assay with SN12C, 84.1 µM (inactive).
In the case of `CC(=O)Nc1ccc(C(=O)N2N=C(C)/C(=C/c3cccc(O)c3)C2=O)cc1`, the GI50 in the assay on OVCAR-8, in the assay with NCI-H460, in the assay on CCRF-CEM, in the assay on SF-539, with SK-MEL-28 and in the assay on K562 was > 100 µM (inactive) throughout. The GI50 with M14 was > 100 µM (inactive); in the assay with OVCAR-5, > 100 µM (inactive); with SF-295 it was > 100 µM (inactive); in the assay with HCT-15 it was greater than 100 µM; in the assay on NCI-H522 it was > 100 µM (inactive); in the assay with ACHN, > 100 µM (inactive). In addition, the GI50 with TK-10, in the assay with SNB-19 and with SN12C was > 100 µM (inactive) in each case.
Consider `O=C1NC(=S)NC(=O)C1=Cc1ccc(-c2ccccc2)cc1`, for which the GI50 in the assay with OVCAR-8 was 49.8 µM (inactive); with NCI-H460, > 100 µM (inactive); in the assay on CCRF-CEM it was 36.3 µM (inactive); in the assay with SF-539, > 100 µM (inactive); with IGROV-1, > 100 µM (inactive); in the assay with K562 it was 31.6 µM (inactive). The GI50 is > 100 µM (inactive) with HOP-92; > 100 µM (inactive) in the assay on M14; > 100 µM (inactive) with OVCAR-5; > 100 µM (inactive) in the assay on SF-295; 94.4 µM (inactive) with RXF 393; greater than 100 µM in the assay on HCT-15. The GI50 in the assay with ACHN, with TK-10, in the assay on SNB-19 and in the assay with SN12C was > 100 µM (inactive) each time.
In the case of `CCOc1cccc2[s+]snc12`, the GI50 with OVCAR-8 was 54.3 µM (inactive); with NCI-H460 it was > 100 µM (inactive); in the assay with CCRF-CEM it was 62.8 µM (inactive); with SF-539, 46.8 µM (inactive); in the assay on SK-MEL-28, > 100 µM (inactive); with IGROV-1, > 100 µM (inactive). For the same molecule, the GI50 in the assay with K562 is 39.8 µM (inactive); with M14, > 100 µM (inactive); in the assay with OVCAR-5 it was > 100 µM (inactive); in the assay with SF-295, > 100 µM (inactive); with RXF 393, > 100 µM (inactive); with HCT-15 it was greater than 100 µM. The GI50 in the assay on NCI-H522 is 27.8 µM (inactive); with ACHN it was > 100 µM (inactive); in the assay on TK-10, > 100 µM (inactive); with SNB-19, > 100 µM (inactive); in the assay with HL-60 it was 30.2 µM (inactive); in the assay with SN12C, > 100 µM (inactive).
Take `Cc1n[nH]c(=O)n1N=C(c1ccccc1)c1ccccc1`: the GI50 in the assay on OVCAR-8, in the assay on NCI-H460, in the assay with CCRF-CEM, in the assay on SK-MEL-28, in the assay with IGROV-1 and with K562 was > 100 µM (inactive) in each case. In addition, the GI50 with HOP-92 is > 100 µM (inactive); in the assay with M14 it was > 100 µM (inactive); in the assay with OVCAR-5, > 100 µM (inactive); in the assay with SF-295, > 100 µM (inactive); with RXF 393 it was 1.26 µM (inactive); in the assay with HCT-15, greater than 100 µM. Moreover, the GI50 with NCI-H522, in the assay with ACHN, in the assay on TK-10, in the assay with SNB-19 and in the assay with SN12C was > 100 µM (inactive) in each case.
For `COc1cc2c(cc1OC)C1=C(C=O)c3ccc(OC)c(OC)c3C(O)N1CC2` (stereo not drawn), the GI50 is 30.8 µM (inactive) with NCI-H460; 33.7 µM (inactive) in the assay on CCRF-CEM; 12.9 µM (inactive) in the assay with SF-539; 31 µM (inactive) in the assay on SK-MEL-28; 21.9 µM (inactive) in the assay with M14; 31.7 µM (inactive) in the assay with OVCAR-5. For the same molecule, the GI50 is 24 µM (inactive) in the assay with SF-295; 30.8 µM in the assay on HCT-15; 25.1 µM (inactive) in the assay on NCI-H522; 28.2 µM (inactive) in the assay with ACHN; 20.9 µM (inactive) with TK-10; 26.2 µM (inactive) in the assay with SNB-19. The GI50 is 16.3 µM (inactive) with HL-60 and 33.2 µM (inactive) with SN12C.
For `CN(C)CC1CN=C(N)O1` (stereo not drawn), the GI50 in the assay on NCI-H460, in the assay with CCRF-CEM, with SF-539, in the assay with SK-MEL-28, in the assay with K562 and with HOP-92 was > 100 µM (inactive) each time. The GI50 is > 100 µM (inactive) in the assay on M14; > 100 µM (inactive) in the assay with OVCAR-5; > 100 µM (inactive) in the assay with SF-295; > 100 µM (inactive) in the assay on RXF 393; greater than 100 µM in the assay with HCT-15; > 100 µM (inactive) with NCI-H522. Moreover, the GI50 in the assay with ACHN, in the assay with TK-10, in the assay on SNB-19 and in the assay with SN12C was > 100 µM (inactive) in each case.

One may read the GI50 as the concentration at which growth is held to half of that of the control.
